Values quoted from earlier work, collected in US20110195110A1, “UREA COMPOUNDS USEFUL IN THE TREATMENT OF CANCER” (priority 2005, published 2011).

Legend:
Bcr-Abl kinase = conditions: greater potency than Imatinib
Bcr-Abl E255K mutant = conditions: biochemical assay
[1] = system: Imatinib-resistant mutations of Bcr-Abl
early phase CML = conditions: patients with early phase CML

SMILES	potency of inhibition of Bcr-Abl kinase activity relative to Imatinib (Bcr-Abl kinase)	inhibition of the E255K mutant (Bcr-Abl E255K mutant)	inhibition of Imatinib-resistant mutations [1]	response at haematological and cytogenetic levels (early phase CML)
Cc1cn(-c2cc(NC(=O)c3ccc(C)c(Nc4nccc(-c5cccnc5)n4)c3)cc(C(F)(F)F)c2)cn1 [AMN-107]	20 fold	somewhat weak inhibition	inhibit most Imatinib-resistant mutations, except for T3151	
Cc1ccc(NC(=O)c2ccc(CN3CCN(C)CC3)cc2)cc1Nc1nccc(-c2cccnc2)n1 [Imatinib]				greater than 90%
